Data taken from US5731432A, “Inhibitors of adenosine monophosphate deaminase” (priority 1994, dated 1998).
Where two headings read alike, the source gives them in different places.

Assays:
ADA = molecular target: T1, ADA (Homo sapiens, UniProt P00813); settings: reported; kind of constant not stated; cited from earlier work
T1 sequence (P00813 1-363): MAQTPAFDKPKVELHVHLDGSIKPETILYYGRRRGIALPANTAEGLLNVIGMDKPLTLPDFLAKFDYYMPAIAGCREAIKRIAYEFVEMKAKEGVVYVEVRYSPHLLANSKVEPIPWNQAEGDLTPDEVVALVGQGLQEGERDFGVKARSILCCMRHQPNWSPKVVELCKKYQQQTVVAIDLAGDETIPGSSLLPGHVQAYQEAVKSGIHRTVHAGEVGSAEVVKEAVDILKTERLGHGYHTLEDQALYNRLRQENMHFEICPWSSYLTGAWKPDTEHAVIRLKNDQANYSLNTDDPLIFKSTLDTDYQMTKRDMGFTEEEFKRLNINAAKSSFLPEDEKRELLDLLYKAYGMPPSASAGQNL

AMPDA = settings: reported; kind of constant not stated; cited from earlier work
[1] = molecular target: AMPDA activity from porcine heart; assay: AMP Deaminase Assay (Example A); assay type: biochemical; settings: for Ki: porcine heart AMPDA, 37° C., pH 6.5, competitive inhibition assumed; for Selectivity Ratio: selectivity ratio=[ADA Ki/Km]/[AMPDA Ki/Km], K = 1,000
Method: Catalysis was initiated by the addition of enzyme to the otherwise complete reaction mixture, and terminated after 5 minutes by injection into an HPLC system. Activities were determined from the amount of IMP formed during 5 minutes.

[2] = tested on: Neutrophil-myocyte adhesion; assay: Inhibition of Neutrophil-Myocyte Adhesion (Example C); assay type: cell-based; settings: read-out: Neutrophil-Myocyte Adhesion Inhibition IC50
Method: Isolated neutrophils and myocytes were stimulated with the cytokine, TNF-α, and incubated in the presence of the test compound. Neutrophil-myocyte adhesion was determined as described by […], et al., J. Clin. Invest.

[3] = molecular target: T2, adenosine deaminase (ADA) from calf intestinal mucosa (Bos taurus, UniProt P56658); assay: Adenosine Deaminase Assay (Example B); assay type: biochemical
T2 construct: adenosine deaminase (ADA) from calf intestinal mucosa; from tissue; host or cells: calf intestinal mucosa
T2 sequence (P56658 1-363): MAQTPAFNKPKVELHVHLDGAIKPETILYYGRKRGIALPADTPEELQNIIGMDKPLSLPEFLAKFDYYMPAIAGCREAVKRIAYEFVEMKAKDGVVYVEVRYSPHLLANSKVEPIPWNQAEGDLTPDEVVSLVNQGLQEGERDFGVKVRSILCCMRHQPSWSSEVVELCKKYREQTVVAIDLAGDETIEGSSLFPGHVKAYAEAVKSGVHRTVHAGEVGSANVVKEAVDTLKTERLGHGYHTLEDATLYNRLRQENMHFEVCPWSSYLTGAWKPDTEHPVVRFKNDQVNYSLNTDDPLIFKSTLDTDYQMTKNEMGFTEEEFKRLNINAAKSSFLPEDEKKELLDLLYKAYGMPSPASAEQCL
Method: Inhibition of adenosine deaminase (ADA) from calf intestinal mucosa was determined spectrophotometrically at pH 7.0 using one of the following two assays:
(1) Direct Assay: The reaction system mixture contained inhibitor, ~0.001 units ADA, and 40 mM potassium phosphate in 1 ml and at 37° C. The concentration of the substrate adenosine was varied from 20 to 100 μM.
The reaction was initiated by addition of adenosine and monitored continuously at 340 nm for 7 minutes as the decrease in absorbance reflects oxidation of NADH.

isolated rat hearts = assay: Functional recovery in isolated rat heart model of ischemia-reperfusion injury (Example D); settings: low flow ischemia then 30 minutes reperfusion
Method: The ability of AMP deaminase inhibitors of the present invention to improve the recovery of post-ischemic function was examined in an isolated rat heart model of ischemia-reperfusion injury.
Isolated rat hearts were cannulated via the ascending aorta and attached to a perfusion apparatus according to the method of Langendorff. The hearts were perfused at a constant pressure of 100 cm of H2 O with a modified Krebs-Hanseleit buffer (pH 7.4) at 37° C. Left ventricular developed pressures (LVDP) were monitored continuously using a latex balloon attached to a pressure transducer. Coronary flows were measured gravimetrically by timed collection of pulmonary effluent. Following equilibration of the hearts for a period of 30 minutes, the hearts were subjected to […] of low flow ischemia, by reducing the perfusion pressure to 10 cm of H2 O, and then reperfused for 30 minutes by restoring the pressure to its original level (100 cm of H2 O). […] Compound 1 m provided recovery of LVDP to 83±2% compared to the placebo value of 65±2% when added to the perfusion to give a concentration of 0.3 μM.

Rat Focal Stroke Model = assay: Rat model of ischemic brain injury / focal stroke (Example F); assay type: in vivo
Text: Each rat is anesthetized with halothane and placed on a heating pad hooked up to a temperature regulator and connected to rectal probe. EEG electrodes are then inserted into the temporalis muscle bilaterally in between the eye and the ear. A midline incision is made to expose the left Common Carotid Artery (CCA). The internal Carotid Artery (ICA)is isolated and carefully separated from the adjacent vagus nerve. Following ligation of various vessels the ICA should be the only remaining extracranial branch of the CCA. Two 5-0 silk sutures are tied loosely around the external carotid artery (ECA)and microvascular clips placed on both the CCA (proximal to the bifurcation)and the ICA (in between the first and the second bifurcation). The ECA above the bifurcation is coagulated and the two sutures are then cut below the coagulation. A 25 mm length 4-0 nylon suture, its tip rounded by heating near a fine tipped cauterizer, is introduced into the ECA lumen. 20-22 mm of the suture is inserted into the ECA stump. The suture around the ECA is tightened to hold the occluding suture in place and EEC reading is checked to confirm occlusion by the appearance of a flat line. At this point the intraluminal suture has blocked the origin of the […] (MCA), occluding all sources of blood flow from the interior Carotid Artery (ICA), the […] (ACA), and the posterior cerebral artery (PCA). At 105 min later the suture is gently retracted under halothane anesthesia to allow blood flow back into the middle cerebral artery. The neck incision is closed and animals allowed to recover from anesthesia. At 24 hrs animals are evaluated for behavioral deficits, sacrificed, transcardial perfused, brains removed and TTC stained for visualization of infarcted region using a computer assisted system.
The application of compound 1d is shown in the time line diagram. Thirty minutes prior to induction of ischemia (SUTURE IN) Compound 1d in isotonic saline solution was infused for 15 min at a loading dose of 250 μg/kg/min (50 μl/min)followed by maintenance rate of 50 μg/kg/min for the remaining 12 hrs.

[4] = calf intestinal mucosa ADA, pH 7.0, read-out: ADA Ki
[5] = neutrophils and myocytes stimulated with TNF-α
[6] = Treated, Post reperfusion, mean ± sem

Row | Compound | Ki [1] | Ki [3, 4] | Selectivity Ratio [1] | IC50 [2, 5] | further results
1 | OC[C@H]1O[C@@H](n2cnc3c2N=CNC[C@H]3O)[C@H](O)[C@@H]1O [Coformycin, coformycin] |  |  |  |  | inhibition of ADA (ADA): < 0.2 nM; inhibition of AMPDA (AMPDA): 1000 nM
2 | CCCCCCCn1cnc2c1N=CNCC2O (stereo not shown) [compound 1a, 3-heptylcoformycin aglycone] | 10 µM | 0.35 µM |  |  | IC50 [2]: 12 ± 6 µM; recovery of LVDP (isolated rat hearts; 3 μM in perfusion, placebo 69±1%): 83±3%
3 | CCCCCCCn1cnc2c1N=CNCC2(C)O (stereo not shown) [compound 1b, 3-heptyl-8-methylcoformycin aglycone] | 36 µM | 12 µM | 6 |  | 
4 | CC(C)=CCC[C@H](C)CCn1cnc2c1N=CNCC2O (stereo partly drawn) [compound 1c, (3'S)-3-(3',7'-dimethyloct-6'-enyl)coformycin aglycone] | 1.1 µM | 1.9 µM | 29 | 5.1 ± 2.5 µM | 
5 | OC1CNC=Nc2c1ncn2C1CCCCCC1 (stereo not shown) [compound 1d, 3-cycloheptylcoformycin aglycone] | 8 µM | 7.9 µM | 17 | 4.3 ± 1.3 µM | Blood Pressure (Rat Focal Stroke Model; [6]): 115 ± 4 mm Hg; Temperature (Rat Focal Stroke Model; [6]): 38.6 ± 0.2 °C; Blood Pressure (Rat Focal Stroke Model; Treated, Pre, mean ± sem): 102 ± 5 mm Hg; Temperature (Rat Focal Stroke Model; Treated, T = 0, mean ± sem): 37.4 ± 0.2 °C; Blood Pressure (Rat Focal Stroke Model; Treated, T = 60, mean ± sem): 84 ± 9 mm Hg; Temperature (Rat Focal Stroke Model; Treated, T = 60, mean ± sem): 37.5 ± 0.2 °C; pCO2 (Rat Focal Stroke Model; Treated, mean ± sem): 37.8 ± 1.3; pH (Rat Focal Stroke Model; Treated, mean ± sem): 7.379 ± 0.015; pO2 (Rat Focal Stroke Model; Treated, mean ± sem): 142.3 ± 10.0; effect on physiological parameters such as blood pressure, heart rate, body temperature and blood gases (Rat Focal Stroke Model; continuous infusion): no apparent effect; reduction of infarct volume (Rat Focal Stroke Model; infusion 250 μg/kg/min for 15 min then 50 μg/kg/min, vs control): 52%; infarct volume (Rat Focal Stroke Model; treated, n=8, control 139±31 (n=7), p=0.05): 71±28 mm^3
6 | CC1(C)[C@H]2CC[C@H](Cn3cnc4c3N=CNCC4O)[C@@H]1C2 (stereo partly drawn) [compound 1e, (l'S,2'S,5'S)-3-(6',6'-dimethyl[3,1,1]-bicyclohept-2'-methyl)coformycin aglycone] | 1.7 µM | > 160 µM | > 1.6K | 24 ± 3 µM | 
7 | Cc1ccccc1CCCn1cnc2c1N=CNCC2O (stereo not shown) [compound 1f, 3-(3'-(2"-methylphenyl)propyl)coformycin aglycone] | 2.1 µM | 0.042 µM | 0.34 | 1.4 ± 0.45 µM | 
8 | CC1=Nc2c(ncn2CCCc2ccccc2C)C(O)CN1 (stereo not shown) [compound 1g, 5-methyl-3-(3'-(2"-methylphenyl)propyl)coformycin aglycone] | 11 µM | > 100 µM | > 150 |  | 
9 | [N-]=[N+]=NC1CNC=Nc2c1ncn2CCCc1ccccc1 (stereo not shown) [compound 1h] | 6.6 µM | 0.063 µM | 0.16 |  | 
10 | CCCOc1ccc(CCCn2cnc3c2N=CNCC3O)cc1 (stereo not shown) [compound 1i, 3-(3'-(4"-propoxyphenyl)propyl)coformycin aglycone] | 3.6 µM | 0.006 µM | 0.03 |  | 
11 | O=C(O)C(CCCCn1cnc2c1NC=NCC2O)Cc1ccccc1 (stereo not shown) [compound 1j, 3-(5'-carboxy-6'-phenylhexyl)coformycin aglycone] |  | > 200 µM |  | 0.045 ± 0.01 µM | 
12 | O=C(O)C(CCCCn1cnc2c1N=CNCC2O)C(=O)OCc1ccccc1 (stereo not shown) [compound 1k, 3-(5'-carboxy-5'-carbobenzyloxypentyl)coformycin aglycone] | 0.36 µM | > 1000 µM | > 47K |  | 
13 | CC(CCCCn1cnc2c1N=CNCC2O)(C(=O)O)C(=O)NCc1ccccc1 (stereo not shown) [compound 1l, 3-(5'-carbox-N-benzylamido-5'-carboxyhexyl)coformycin aglycone] | 2.7 µM | > 1000 µM | > 6.3K |  | 
14 | Cc1ccc(C(=O)O)cc1CCn1cnc2c1N=CNCC2O (stereo not shown) [compound 1m, 3-(2'-(3"-carboxy-6"-methylphenyl)ethyl)coformycin aglycone] | 0.097 µM | > 1000 µM | > 175K |  | IC50 [2]: 0.03 ± 0.01 µM; recovery of LVDP (isolated rat hearts; 0.3 μM in perfusion, placebo 65±2%): 83±2%
15 | Cc1ccc(-c2nn[nH]n2)cc1CCn1cnc2c1N=CNCC2O (stereo not shown) [compound 1n, 3-(2'-(6"-methyl-3"-(tetrazol-5'"-yl)phenyl)ethyl)coformycin aglycone] | 1.6 µM |  | > 2.1K |  | Ki [3]: > 200 µM
16 | O=C(O)c1cc(CCn2cnc3c2N=CNCC3O)cs1 (stereo not shown) [compound 1o, 3-(2'-(2"-carboxythiophen-4"-yl)ethyl)coformycin aglycone] | 2.2 µM | > 6 µM | 590 | 8 ± 2 µM | 
17 | O=C(O)c1cc(CCn2cnc3c2N=CNCC3O)c2ccccc2c1 (stereo not shown) [compound 1p, 3-(2'-(3"-carboxynaphthyl)ethyl)coformycin aglycone] | 0.02 µM | > 1000 µM | > 850K |  | 
18 | OC[C@H]1O[C@@H](n2cnc3c2NC=NC[C@H]3O)C[C@@H]1O [deoxycoformycin] |  |  |  |  | inhibition of AMPDA (AMPDA): 1000 nM
